A short description of data set [1]: Pharmacokinetic study in WT DIO mice dosed with control or Glp1r expressing AAV. The conditions noted are these: Glp1r AAV treated vs control groups; Figure 2K. The data set is classed as in vivo, mouse. As to the method: Male C57Bl6 mice were randomized and evenly distributed to test groups (n = 8 per group) according to body weight. Animals received tail vein injection of the control AAV or mGLP-1R expressing AAV at a dose of 10^12 GC per mouse on day −7 for each study. […] Treatments were administered via daily SC injection for the duration of the study; dosage is indicated within each figure. Dose escalation regimens for each peptide were determined based on previously published studies. Body weight and food intake was measured every other day throughout the study.

A further data set relates to C57Bl6 mice. Description: Cardiovascular radiotelemetry (heart rate, mean arterial pressure). In kind it is in vivo, mouse. The settings on record: Glp1r AAV treated mice; 0.5, 1 and 3 nmol/kg SC; Figure 2H. The source says:
Male C57Bl6 mice (8–10 weeks old) were anesthetized with isoflurane and surgically implanted with pressure transmitters (PA-C10, DSI), with the catheter inserted into the left carotid artery and the body of the transmitter between the outer skin layer and abdomen wall in the left flank of the mouse. After recovering, they were singly housed and monitored in their home cages. Mice were given control and experimental AAV virus via tail vein injections at least 7 days prior to CV study. Transmitters were turned on via magnets and SC vehicle injections were administered 2 h after the onset of the light phase for baseline measurements. At t = 24 h, mice were grouped if needed and SC compound injections began. Stressors were allowed only from 9:00 AM to 11:00 AM during the light phase, with continuous sampling throughout the day. Measurements of pulse pressure, arterial pressures, and heart rate values were extracted with the DataQuest A.R.T. 4.1 software and averaged into 3-hour bins for analysis.

Another data set deals with T1, hGLP-1R (Homo sapiens, UniProt P43220).
T1 construct: expressed in transfected cells
T1 sequence (P43220 24-463): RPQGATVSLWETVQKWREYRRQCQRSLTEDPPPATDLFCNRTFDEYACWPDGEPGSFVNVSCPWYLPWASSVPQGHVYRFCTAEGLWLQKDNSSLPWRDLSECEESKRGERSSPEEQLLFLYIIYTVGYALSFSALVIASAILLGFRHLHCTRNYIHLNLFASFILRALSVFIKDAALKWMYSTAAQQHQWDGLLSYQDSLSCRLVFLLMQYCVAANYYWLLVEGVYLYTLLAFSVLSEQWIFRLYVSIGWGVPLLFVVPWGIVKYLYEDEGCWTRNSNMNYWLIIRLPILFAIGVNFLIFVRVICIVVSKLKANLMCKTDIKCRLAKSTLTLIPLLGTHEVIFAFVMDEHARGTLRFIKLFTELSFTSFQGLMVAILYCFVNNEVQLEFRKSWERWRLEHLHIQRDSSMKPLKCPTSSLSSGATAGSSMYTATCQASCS
The settings on record: cited from earlier work. The source says:
Second, agonism of the ectopic, hepatic GLP-1R creates a novel mechanism of drug clearance and may have effects on biodistribution.

This is an account of results in PMC12926979, “Ectopic, hepatic GLP-1R agonism enhances the weight loss efficacy of GLP-1 analogues” (Molecular Metabolism, 2026).

Turning to `CC[C@H](C)[C@H](NC(=O)[C@H](Cc1ccccc1)NC(=O)[C@H](CCC(=O)O)NC(=O)[C@H](CCCCNC(=O)COCCOCCNC(=O)COCCOCCNC(=O)CC[C@H](NC(=O)CCCCCCCCCCCCCCCCC(=O)O)C(=O)O)NC(=O)[C@H](C)NC(=O)[C@H](C)NC(=O)[C@H](CCC(N)=O)NC(=O)CNC(=O)[C@H](CCC(=O)O)NC(=O)[C@H](CC(C)C)NC(=O)[C@H](Cc1ccc(O)cc1)NC(=O)[C@H](CO)NC(=O)[C@H](CO)NC(=O)[C@@H](NC(=O)[C@H](CC(=O)O)NC(=O)[C@H](CO)NC(=O)[C@@H](NC(=O)[C@H](Cc1ccccc1)NC(=O)[C@@H](NC(=O)CNC(=O)[C@H](CCC(=O)O)NC(=O)C(C)(C)NC(=O)[C@@H](N)Cc1cnc[nH]1)[C@@H](C)O)[C@@H](C)O)C(C)C)C(=O)N[C@@H](C)C(=O)N[C@@H](Cc1c[nH]c2ccccc12)C(=O)N[C@@H](CC(C)C)C(=O)N[C@H](C(=O)N[C@@H](CCCNC(=N)N)C(=O)NCC(=O)N[C@@H](CCCNC(=N)N)C(=O)NCC(=O)O)C(C)C` [semaglutide], in data set [1], the “semaglutide clearance with ectopic hepatic GLP-1R” value is recorded as “significant increase in semaglutide clearance”. In addition, the “Heart rate effect of semaglutide + Glp1r AAV” value with C57Bl6 mice is recorded as “reduces this effect”.

Turning to tirzepatide, at hGLP-1R, the GLP-1R internalization profile result is on record as “low receptor internalising profile”.
